# ChEMBL document CHEMBL4130353, “2-Substituted 3,7,8-trimethylnaphtho[1,2-b]furan-4,5-diones as specific L-shaped NQO1-mediated redox modulators for the treatment of non-small cell lung cancer” (Eur J Med Chem, 2017)
# Calls of active or inactive are those of the source. No cut-off for these calls is given here.
# Legend:
# A549 [1] = experiment: Effect on total p38 protein levels in human A549 cells at 10 uM after 3 hrs by Western blot analysis relative to control; format: ADME, cell-based; settings: a549, 3 h
# [2] = molecular target: NAD(P)H dehydrogenase [quinone] 1 (Homo sapiens) (UniProt P15559); experiment: Substrate activity at NQO1 in human A549 cells assessed as induction of ROS-induced Akt phosphorylation at […] at 10 uM after 3 hrs in presence of DIC by Western blot analysis relative to control; format: cell-based
# [3] = molecular target: T1, NADPH--cytochrome P450 reductase (Homo sapiens, UniProt P16435); experiment: Substrate activity at human CPR expressed in baculovirus expression system assessed as reduction rate by measuring umol of NADPH utilized per umol of enzyme at 10 uM preincubated for 3 mins followed by NADPH addition measured at 2 secs interval for 5 mins by UV-Vis spectroscopy; format: ADME
# T1 sequence (P16435 whole entry): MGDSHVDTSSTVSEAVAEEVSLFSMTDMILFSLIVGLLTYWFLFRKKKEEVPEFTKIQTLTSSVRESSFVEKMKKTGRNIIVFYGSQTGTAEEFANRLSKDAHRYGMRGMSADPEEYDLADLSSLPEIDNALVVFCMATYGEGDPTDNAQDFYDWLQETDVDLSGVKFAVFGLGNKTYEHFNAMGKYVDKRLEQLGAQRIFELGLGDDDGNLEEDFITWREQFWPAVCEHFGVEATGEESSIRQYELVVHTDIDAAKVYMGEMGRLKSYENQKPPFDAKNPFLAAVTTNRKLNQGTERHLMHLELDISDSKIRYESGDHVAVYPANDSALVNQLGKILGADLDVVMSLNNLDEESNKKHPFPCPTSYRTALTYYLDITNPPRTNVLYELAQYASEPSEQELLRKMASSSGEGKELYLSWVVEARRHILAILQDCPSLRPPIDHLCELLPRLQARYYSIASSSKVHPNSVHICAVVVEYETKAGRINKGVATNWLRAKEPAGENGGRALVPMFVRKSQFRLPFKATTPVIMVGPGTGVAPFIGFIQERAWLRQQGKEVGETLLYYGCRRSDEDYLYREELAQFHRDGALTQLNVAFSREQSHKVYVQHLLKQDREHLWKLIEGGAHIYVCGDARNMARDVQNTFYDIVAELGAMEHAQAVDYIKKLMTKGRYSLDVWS
# NCI-H596 = experiment: Cytotoxicity against human NCI-H596 cells assessed as cell growth inhibition preincubated for 24 hrs followed by compound washout measured after 72 hrs by MTT assay; format: functional, cell-based
# A549 [4] = experiment: Effect on total AKT protein levels in human A549 cells at 1 uM after 3 hrs by Western blot analysis relative to control; format: ADME, cell-based; settings: a549, 3 h
# [5] = molecular target: NAD(P)H dehydrogenase [quinone] 1 (Homo sapiens) (UniProt P15559); experiment: Substrate activity at NQO1 in human A549 cells assessed as induction of ROS-induced ERK phosphorylation at 10 uM after 3 hrs in presence of DIC by Western blot analysis relative to control; format: cell-based
# A549 [6] = experiment: Induction of apoptosis in human A549 cells assessed as nuclei condensation at 0.1 to 5 uM after 24 hrs by DAPI-staining based microscopy; format: functional, cell-based
# [7] = molecular target: NAD(P)H dehydrogenase [quinone] 1 (Homo sapiens) (UniProt P15559); experiment: Substrate activity at NQO1 in human A549 cells assessed as induction of enzyme-catalyzed lipid peroxidation by measuring MDA equivalents per protein at 5 uM after 24 hrs by TBARS assay (reference value: 3.53 +/- 1.12 nmol/mg); format: cell-based
# Mus musculus = experiment: Toxicity in athymic nude mouse xenografted with human A549 cells assessed as reduction in body weight at 50 mg/kg, iv administered every other day for 3 weeks relative to control; format: organism-based; set-up: scale not given: the % may be the effect or the level left; settings: in vivo, 504 h
# A549 [8] = experiment: Induction of apoptosis in human A549 cells assessed as increase in cleaved PARP expression at 10 uM after 24 hrs in presence of NAC by Western blot analysis; format: functional, cell-based
# A549 [9] = experiment: Reduction of intracellular GSH levels in human A549 cells xenografted in athymic nude mouse at 15 to 30 mg/kg, iv administered every other day for 3 weeks by fluorescence-based assay; format: functional, organism-based
# [10] = molecular target: NAD(P)H dehydrogenase [quinone] 1 (Homo sapiens) (UniProt P15559); experiment: Substrate activity at NQO1 in human A549 cells assessed as induction of enzyme-catalyzed ROS production at 10 uM after 1 to 3 hrs by DCFH-DA-based flow cytometry; format: cell-based
# A549 [11] = experiment: Effect on total ERK protein levels in human A549 cells at 1 uM after 3 hrs by Western blot analysis relative to control; format: ADME, cell-based; settings: a549, 3 h
# [12] = Lipophilicity, log D of the compound at pH 7.4; format: physicochemical; settings: buffer
# [13] = molecular target: NAD(P)H dehydrogenase [quinone] 1 (Homo sapiens) (UniProt P15559); experiment: Substrate activity at NQO1 in human A549 cells assessed as induction of ROS-induced p38 phosphorylation at T180/Y182 at 10 uM after 3 hrs in presence of DIC by Western blot analysis relative to control; format: cell-based
# [14] = molecular target: NAD(P)H dehydrogenase [quinone] 1 (Homo sapiens) (UniProt P15559); experiment: Substrate activity at NQO1 in human A549 cells assessed as induction of ROS-induced JNK phosphorylation at 10 uM after 3 hrs in presence of NAC by Western blot analysis relative to control; format: cell-based
# A549 [15] = experiment: Reduction of intracellular NADPH levels in human A549 cells xenografted in athymic nude mouse at 15 to 30 mg/kg, iv administered every other day for 3 weeks by fluorescent NADP+/NADPH detection based assay; format: functional, organism-based
# A549 [16] = experiment: Effect on total ERK protein levels in human A549 cells at 10 uM after 3 hrs by Western blot analysis relative to control; format: ADME, cell-based; settings: a549, 3 h
# NCI-H1299 = experiment: Cytotoxicity against human NCI-H1299 cells assessed as assessed as cell growth inhibition for 24 hrs followed by compound washout measured after 72 hrs by MTT assay; format: functional, cell-based
# [17] = molecular target: NAD(P)H dehydrogenase [quinone] 1 (Homo sapiens) (UniProt P15559); experiment: Substrate activity at NQO1 in human A549 cells assessed as induction of ROS-induced Akt phosphorylation at […] at 1 uM after 3 hrs by Western blot analysis relative to control; format: cell-based
# [18] = molecular target: NAD(P)H dehydrogenase [quinone] 1 (Homo sapiens) (UniProt P15559); experiment: Substrate activity at NQO1 in human A549 cells assessed as induction of ROS-induced JNK phosphorylation at 10 uM after 3 hrs in presence of DIC by Western blot analysis relative to control; format: cell-based
# [19] = molecular target: NAD(P)H dehydrogenase [quinone] 1 (Homo sapiens) (UniProt P15559); experiment: Substrate activity at NQO1 in human A549 cells assessed as induction of enzyme-catalyzed ROS production at 10 uM after 1 to 3 hrs in presence of DIC by DCFH-DA-based flow cytometry; format: cell-based
# [20] = molecular target: NAD(P)H dehydrogenase [quinone] 1 (Homo sapiens) (UniProt P15559); experiment: Substrate activity at NQO1 in human A549 cells assessed as induction of ROS-induced JNK phosphorylation at 10 uM after 3 hrs by Western blot analysis relative to control; format: cell-based
# A549 [21] = experiment: Effect on total p38 protein levels in human A549 cells at 1 uM after 3 hrs by Western blot analysis relative to control; format: ADME, cell-based; settings: a549, 3 h
# [22] = molecular target: NAD(P)H dehydrogenase [quinone] 1 (Homo sapiens) (UniProt P15559); experiment: Substrate activity at NQO1 in human A549 cells assessed as induction of ROS-induced Akt phosphorylation at S473 at 1 uM after 3 hrs by Western blot analysis relative to control; format: cell-based
# [23] = molecular target: NAD(P)H dehydrogenase [quinone] 1 (Homo sapiens) (UniProt P15559); experiment: Substrate activity at NQO1 in human A549 cells assessed as induction of ROS-induced p38 phosphorylation at T180/Y182 at 10 uM after 3 hrs in presence of NAC by Western blot analysis relative to control; format: cell-based
# [24] = molecular target: NAD(P)H dehydrogenase [quinone] 1 (Homo sapiens) (UniProt P15559); experiment: Substrate activity at NQO1 in human A549 cells assessed as induction of ROS-induced ERK phosphorylation at 10 uM after 3 hrs by Western blot analysis relative to control; format: cell-based
# NAD(P)H dehydrogenase [quinone] 1 (Homo sapiens), sequence (P15559 whole entry): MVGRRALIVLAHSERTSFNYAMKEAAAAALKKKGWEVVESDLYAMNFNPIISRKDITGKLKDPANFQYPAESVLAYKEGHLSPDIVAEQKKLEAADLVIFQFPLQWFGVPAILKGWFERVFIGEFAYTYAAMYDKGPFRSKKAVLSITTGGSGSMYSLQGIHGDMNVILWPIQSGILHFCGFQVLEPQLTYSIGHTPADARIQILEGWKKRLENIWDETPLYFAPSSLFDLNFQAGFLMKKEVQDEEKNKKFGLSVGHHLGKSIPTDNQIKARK
smiles,measurement,setting,value
Cc1cc2c(cc1C)-c1oc(CNc3ccc(CN4CCOCC4)cc3)c(C)c1C(=O)C2=O,fold change (FC),A549 [1],1.1
same,fold change (FC),[2],1.96
same,Activity,[3],73 µmol NADPH/min/µmol enzyme
same,IC50,NCI-H596,30 µM
same,fold change (FC),A549 [4],1.07
same,fold change (FC),[5],1.27
same,Activity,A549 [6],Active
same,Activity,[7],10.3 nmol/mg
same,Activity,Mus musculus,18%
same,Activity,A549 [8],inactive
same,Activity,A549 [9],Active
same,Activity,[10],Active
same,fold change (FC),A549 [11],1.01
same,logD,[12],3.1
same,fold change (FC),[13],9.2
same,fold change (FC),[14],12.5
same,Activity,A549 [15],Active
same,fold change (FC),A549 [16],1.02
same,IC50,NCI-H1299,3.8 µM
same,fold change (FC),[17],2.38
same,fold change (FC),[18],7.1
same,Activity,[19],inactive
same,fold change (FC),[20],30.5
same,fold change (FC),A549 [21],0.93
same,fold change (FC),[22],1.51
same,fold change (FC),[23],11.2
same,fold change (FC),[24],2.49
